Measurements reported in patent publication EP1827382B1, “NOVEL GALENIC SYSTEM FOR ACTIVE PRINCIPLE TRANSPORT, PREPARATION METHOD AND USE” (Capsugel France, priority 2004, dated 2006).

Experiment: Resistance test in acid medium (omeprazole content after neutralisation, over time)
Type: physicochemical
Conditions: stirred medium pH 1,2, 37,5°C; omeprazole assayed by HPLC after neutralisation to pH=6,8, over time; figure 1
Experimental: Pour déterminer la résistance au pH acide, les préparations sont placées en milieu agité à pH 1,2 à 37,5°C. La résistance au pH acide est déterminée par le dosage du taux d'Oméprazole après neutralisation à pH=6,8 en fonction du temps.
L'Oméprazole est dosée par HPLC après extraction.

COc1ccc2[nH]c([S+]([O-])Cc3ncc(C)c(OC)c3C)nc2c1 (stereo not shown) [Oméprazole libre, Oméprazole]
résistance au pH acide: dégradé en quelques minutes
